Experimental data reported in patent US10053457B2, “Hydroxyalkyl-piperazine derivatives as CXCR3 receptor modulators” (IDORSIA PHARMACEUTICALS LTD, priority 2015, dated 2018).

Tests used:
Assay type in all cases: cell-based
human CXCR3A = human CXCR3A (Homo sapiens (Human), UniProt P49682); assay: FLIPR assay (CXCL10-induced calcium signal); details: CHO-K1 cells expressing human CXCR3A coupled to Galpha(16); CXCL10 agonist 20 nM; mean values
Text: (§1) In the case where IC50 values have been determined several times for the same compound, mean values are given.

CXCR3 = CXCR3 (Homo sapiens (Human), UniProt P49682); assay: Receptor internalization assay in human whole blood (CXCR3 surface expression on CD4 positive cells, CXCL10); details: final CXCL10 9 nM, 30 min at 37° C., mean values
Method: Diluted compounds are then mixed with an equal volume of CXCL10 (Peprotech) diluted in PBS. Anticoagulated venous human whole blood is added to the mixture, which is then incubated in a CO2 incubator at 37° C. to allow for ligand mediated receptor internalization (final CXCL10 concentration is 9 nM). After 30 min, the blood is mixed with fluorescently labeled CXCR3 and CD4 specific antibodies (Becton Dickinson) and incubated on ice for 10 minutes. Samples are then mixed with BD FACS Lysing Solution (Becton Dickinson) in order to eliminate red blood cells. After washing the cells with PBS containing 0.5% BSA, the samples are then analyzed in a flow cytometer (FACS Canto II, Becton Dickinson). For data analysis using FACSDiva software (Becton Dickinson), the mean fluorescence corresponding to CXCR3 cell surface expression was determined on CD4 positive cells. The program GraphPad Prism or similar software is used to fit the data to a single site dose response curve and to calculate IC50 values.
as §1

hERG K channel = hERG K channel (Homo sapiens (Human), UniProt Q12809); assay: hERG Q-Patch assay; details: CHO cells expressing hERG, K+ tail current 3 min after application, mean of two or three experiments
Method: Compounds are evaluated for block of the hERG K channel using CHO cells stably expressing the hERG gene (accession number U04270, bSys, Witterswil, Switzerland) and the QPatch robotic platform (Sophion, Ballerup, Denmark) in single-cell mode at room temperature. Cells are grown in culture flasks at 37° C. in 5% CO2, in culture medium (Ham's F-12 Nutrient Mixture, Invitrogen 21765-029) supplemented with 9% (v/v) fetal calf serum, 0.9% Penicillin/Streptomycin (10,000 U/mL, Invitrogen 15140148), 100 μg/mL Hygromycin B (Invitrogen 10687010). When the cells are ˜80% confluent (every 2-3 days), they are either split for further culture or used for electrophysiology. For further culture, cells are detached with 0.25% Trypsin EDTA solution (Invitrogen 25200-056) and a fraction of the cells (10-30%) is reseeded in culture medium. For electrophysiology, on the experimental day, cells are detached with 0.25% Trypsin EDTA solution and all cells are suspended in suspension medium (293 SFM II, Invitrogen 11686-029) supplemented with 20 mM HEPES and 0.04 mg/mL Trypsin inhibitor. Cells are kept in suspension medium at 32-35° C. in the QPatch robot until use, at which time aliquots are transferred to the extracellular solution (in mM: NaCl 150; KCl 4; CaCl2 1.2; MgCl2 1; HEPES 10; pH 7.4 with NaOH) containing 0.3% v/v DMSO and applied to the test plates. K^+ currents are measured with the patch-voltage-clamp technique in the whole-cell configuration with the internal solution (in mM: KCl, 140; NaCl, 10; MgCl2, 1; HEPES, 10: EGTA, 5; pH=7.2 with KOH). Currents are low-pass filtered using the internal Bessel filter of the QPatch robot with a cut-off frequency of 2 kHz and are digitized at 10 kHz. K^+ tail currents are produced from a holding voltage of −80 mV by a 500-ms depolarization to +20 mV followed by a 500-ms repolarization to −40 mV; tail current amplitudes are measured at the end of the repolarization to −40 mV. The pulse pattern is repeated every 10 sec during the experiment, baseline K^+ current is measured after 3 min in extracellular solution, test-solution containing compound is then applied, and K^+ current in presence of compound is measured 3 minutes after application to the cells. The respective test-solution is prepared by (1) dissolving the test-compound in pure DMSO, (2) diluting this DMSO solution in extracellular solution, and (3) adding further DMSO, such that the final test-solution has a concentration of either 300 nM or 3000 nM of the test-compound and contains 0.3% v/v DMSO. Compound effects are quantified as % block by dividing the current in presence of compound by the baseline current; two or three experiments are performed for each compound and the final value represents the mean of the results of each experiment.

Sequence of hERG K channel (Q12809 whole entry): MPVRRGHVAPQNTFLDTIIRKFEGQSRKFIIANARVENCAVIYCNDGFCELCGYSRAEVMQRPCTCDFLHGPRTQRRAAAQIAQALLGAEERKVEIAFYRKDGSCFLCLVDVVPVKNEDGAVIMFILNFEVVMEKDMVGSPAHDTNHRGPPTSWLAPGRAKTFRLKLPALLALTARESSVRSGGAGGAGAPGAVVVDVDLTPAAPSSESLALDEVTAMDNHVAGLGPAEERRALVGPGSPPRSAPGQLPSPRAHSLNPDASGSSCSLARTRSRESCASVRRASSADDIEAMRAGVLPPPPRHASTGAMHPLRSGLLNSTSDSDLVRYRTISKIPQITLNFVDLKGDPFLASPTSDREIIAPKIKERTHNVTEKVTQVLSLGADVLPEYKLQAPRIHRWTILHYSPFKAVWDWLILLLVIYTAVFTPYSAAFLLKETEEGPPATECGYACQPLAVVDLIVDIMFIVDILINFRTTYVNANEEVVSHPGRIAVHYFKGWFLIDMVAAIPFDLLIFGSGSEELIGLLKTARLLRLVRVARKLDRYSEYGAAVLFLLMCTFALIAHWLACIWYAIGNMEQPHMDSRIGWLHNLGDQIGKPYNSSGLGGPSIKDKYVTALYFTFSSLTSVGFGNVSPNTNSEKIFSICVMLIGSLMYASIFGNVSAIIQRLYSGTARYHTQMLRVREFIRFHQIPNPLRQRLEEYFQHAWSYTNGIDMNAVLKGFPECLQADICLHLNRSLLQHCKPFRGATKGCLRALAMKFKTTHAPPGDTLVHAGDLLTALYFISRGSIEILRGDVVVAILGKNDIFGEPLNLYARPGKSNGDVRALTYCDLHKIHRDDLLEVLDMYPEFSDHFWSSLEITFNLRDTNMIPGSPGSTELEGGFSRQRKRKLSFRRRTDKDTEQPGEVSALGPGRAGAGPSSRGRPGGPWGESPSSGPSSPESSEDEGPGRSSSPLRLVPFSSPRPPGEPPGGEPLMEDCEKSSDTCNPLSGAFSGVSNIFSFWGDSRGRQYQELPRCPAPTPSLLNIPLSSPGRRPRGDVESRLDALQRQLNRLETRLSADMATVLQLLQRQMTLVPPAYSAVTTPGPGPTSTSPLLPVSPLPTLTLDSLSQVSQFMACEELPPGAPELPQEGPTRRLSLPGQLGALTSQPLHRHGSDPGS
Sequence of CXCR3 (P49682 whole entry): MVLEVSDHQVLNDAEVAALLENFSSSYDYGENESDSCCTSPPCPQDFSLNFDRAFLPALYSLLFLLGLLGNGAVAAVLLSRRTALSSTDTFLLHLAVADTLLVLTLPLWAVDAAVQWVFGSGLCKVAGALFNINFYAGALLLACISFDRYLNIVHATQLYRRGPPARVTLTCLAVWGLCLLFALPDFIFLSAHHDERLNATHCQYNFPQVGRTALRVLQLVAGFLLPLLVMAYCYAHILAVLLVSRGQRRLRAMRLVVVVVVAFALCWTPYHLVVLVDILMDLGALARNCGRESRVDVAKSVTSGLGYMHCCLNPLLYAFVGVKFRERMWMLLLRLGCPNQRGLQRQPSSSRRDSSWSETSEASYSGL
Sequence of human CXCR3A (P49682 whole entry): as above

| SMILES | IC50 (human CXCR3A) | IC50 (CXCR3) | % block (hERG K channel; concentration 300 nM) | % block (hERG K channel; concentration 3000 nM) |
| --- | --- | --- | --- | --- |
| O=C(Cn1cnc(C(F)(F)F)n1)N1CCN(c2sc(C(F)(F)F)nc2-c2cnc(C(F)(F)F)nc2)C[C@H]1CCO [Example 28, 1-{(R)-2-(2-Hydroxy-ethyl)-4-[2-trifluoromethyl-4-(2-trifluoromethyl-pyrimidin-5-yl)-thiazol-5-yl]-piperazin-1-yl}-2-(3-trifluoromethyl-[1,2,4]triazol-1-yl)-ethanone] | 1.1 nM | 214 nM | 6% | 40% |
| Cc1ccn(CC(=O)N2CCN(c3sc(C(F)(F)F)nc3-c3cnc(C(F)(F)F)nc3)C[C@H]2CO)n1 [Example 42, 1-{(S)-2-Hydroxymethyl-4-[2-trifluoromethyl-4-(2-trifluoromethyl-pyrimidin-5-yl)-thiazol-5-yl]-piperazin-1-yl}-2-(3-methyl-pyrazol-1-yl)-ethanone] | 1 nM | 59.7 nM | 2% | 15% |
| CCc1ncn(CC(=O)N2CCN(c3sc(C(F)(F)F)nc3-c3cnc(C(F)(F)F)nc3)C[C@H]2CCO)n1 [Example 32, 2-(3-Ethyl-[1,2,4]triazol-1-yl)-1-{(R)-2-(2-hydroxy-ethyl)-4-[2-trifluoromethyl-4-(2-trifluoromethyl-pyrimidin-5-yl)-thiazol-5-yl]-piperazin-1-yl}-ethanone] | 2.6 nM | 93.3 nM | 0% | 19% |
| O=C(Cn1cnc(C(F)F)n1)N1CCN(c2sc(C(F)(F)F)nc2-c2cnc(C(F)(F)F)nc2)C[C@@H]1CO [Example 38, 2-(3-Difluoromethyl-[1,2,4]triazol-1-yl)-1-{(R)-2-hydroxymethyl-4-[2-trifluoromethyl-4-(2-trifluoromethyl-pyrimidin-5-yl)-thiazol-5-yl]-piperazin-1-yl}-ethanone] | 8.6 nM | 258 nM |  |  |
| O=C(Cn1cnc(-c2ccccn2)n1)N1CCN(c2sc(C(F)(F)F)nc2-c2cnc(C(F)(F)F)nc2)C[C@@H]1CO [Example 23, 1-{(R)-2-Hydroxymethyl-4-[2-trifluoromethyl-4-(2-trifluoromethyl-pyrimidin-5-yl)-thiazol-5-yl]-piperazin-1-yl}-2-(3-pyridin-2-yl-[1,2,4]triazol-1-yl)-ethanone] | 35 nM | 2730 nM |  |  |
| COCc1ncn(CC(=O)N2CCN(c3sc(C(F)(F)F)nc3-c3cnc(C(F)(F)F)nc3)C[C@@H]2CO)n1 [Example 17, 1-{(R)-2-Hydroxymethyl-4-[2-trifluoromethyl-4-(2-trifluoromethyl-pyrimidin-5-yl)-thiazol-5-yl]-piperazin-1-yl}-2-(3-methoxymethyl-[1,2,4]triazol-1-yl)-ethanone] | 5.9 nM | 1290 nM | 2% | 6% |
| O=C(Cn1cnc2cccnc21)N1CCN(c2sc(C(F)(F)F)nc2-c2cnc(C(F)(F)F)nc2)C[C@@H]1CO [Example 26, 1-{(R)-2-Hydroxymethyl-4-[2-trifluoromethyl-4-(2-trifluoromethyl-pyrimidin-5-yl)-thiazol-5-yl]-piperazin-1-yl}-2-imidazo[4,5-b]pyridin-3-yl-ethanone] | 3.5 nM | 74.2 nM |  |  |
| COc1ccc2c(ccn2CC(=O)N2CCN(c3sc(C(F)(F)F)nc3-c3cnc(C(F)(F)F)nc3)C[C@@H]2CO)c1 [Example 15, 1-{(R)-2-Hydroxymethyl-4-[2-trifluoromethyl-4-(2-trifluoromethyl-pyrimidin-5-yl)-thiazol-5-yl]-piperazin-1-yl}-2-(5-methoxy-indol-1-yl)-ethanone] | 2.3 nM | 1660 nM | 8% | 35% |
| Cc1ncn(CC(=O)N2CCN(c3sc(C(F)(F)F)nc3-c3cnc(C(F)(F)F)nc3)C[C@H]2CCO)n1 [Example 35, 1-{(R)-2-(2-Hydroxy-ethyl)-4-[2-trifluoromethyl-4-(2-trifluoromethyl-pyrimidin-5-yl)-thiazol-5-yl]-piperazin-1-yl}-2-(3-methyl-[1,2,4]triazol-1-yl)-ethanone] | 2.9 nM | 102 nM | 11% | 25% |
| CC(C)(C)c1ncn(CC(=O)N2CCN(c3sc(C(F)(F)F)nc3-c3cnc(C(F)(F)F)nc3)C[C@H]2CCO)n1 [Example 30, 2-(3-tert-Butyl-[1,2,4]triazol-1-yl)-1-{(R)-2-(2-hydroxy-ethyl)-4-[2-trifluoromethyl-4-(2-trifluoromethyl-pyrimidin-5-yl)-thiazol-5-yl]-piperazin-1-yl}-ethanone] | 4.4 nM | 170 nM | −2% | 25% |
| Cc1nc(C)n(CC(=O)N2CCN(c3sc(C(F)(F)F)nc3-c3cnc(C4CC4)nc3)C[C@H]2CO)n1 [Example 8, 1-{(S)-4-[4-(2-Cyclopropyl-pyrimidin-5-yl)-2-trifluoromethyl-thiazol-5-yl]-2-hydroxymethyl-piperazin-1-yl}-2-(3,5-dimethyl-[1,2,4]triazol-1-yl)-ethanone] | 10 nM | 3200 nM | 19% | 54% |
| O=C(Cn1cnc(C2CC2)n1)N1CCN(c2sc(C(F)(F)F)nc2-c2cnc(C(F)(F)F)nc2)C[C@H]1CCO [Example 31, 2-(3-Cyclopropyl-[1,2,4]triazol-1-yl)-1-{(R)-2-(2-hydroxy-ethyl)-4-[2-trifluoromethyl-4-(2-trifluoromethyl-pyrimidin-5-yl)-thiazol-5-yl]-piperazin-1-yl}-ethanone] | 4.4 nM | 73.8 nM | 2% | 23% |
| CCc1nc(C)nn1CC(=O)N1CCN(c2sc(C(F)(F)F)nc2-c2cnc(C(F)(F)F)nc2)C[C@@H]1CO [Example 25, 2-(5-ethyl-3-methyl-[1,2,4]triazol-1-yl)-1-{(R)-2-hydroxymethyl-4-[2-trifluoromethyl-4-(2-trifluoromethyl-pyrimidin-5-yl)-thiazol-5-yl]-piperazin-1-yl}-ethanone] | 3.6 nM | 664 nM |  |  |
| CCc1nc(C)n(CC(=O)N2CCN(c3sc(C(F)(F)F)nc3-c3cnc(C(F)(F)F)nc3)C[C@@H]2CO)n1 [Example 24, 2-(3-ethyl-5-methyl-[1,2,4]triazol-1-yl)-1-{(R)-2-hydroxymethyl-4-[2-trifluoromethyl-4-(2-trifluoromethyl-pyrimidin-5-yl)-thiazol-5-yl]-piperazin-1-yl}-ethanone] | 7.6 nM | 355 nM |  |  |
| CC(O)c1ncn(CC(=O)N2CCN(c3sc(C(F)(F)F)nc3-c3cnc(C(F)(F)F)nc3)C[C@@H]2CO)n1 (stereo partly drawn) [Example 21, 2-[3-(1-Hydroxy-ethyl)-[1,2,4]triazol-1-yl]-1-{(R)-2-hydroxymethyl-4-[2-trifluoromethyl-4-(2-trifluoromethyl-pyrimidin-5-yl)-thiazol-5-yl]-piperazin-1-yl}-ethanone] | 4.3 nM | 737 nM |  |  |
